From the supplement of paper PMC10307832

Experiments:
Assay in all cases: relative viability (nuclei count vs DMSO), 5 days (fraction); higher = more cells survive
Shikonin + Linsitinib = compound: CC(C)=CC[C@@H](O)C1=CC(=O)c2c(O)ccc(O)c2C1=O [Shikonin] + C[C@]1(O)C[C@@H](c2nc(-c3ccc4ccc(-c5ccccc5)nc4c3)c3c(N)nccn32)C1 [Linsitinib] (partner 1 µM)
Summary of the method: (§1)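 For relative viability, nuclei counts in treated wells were divided by those in vehicle wells. Lung cancer cell lines had been pin-tool dosed in 1536-well plates the day after seeding and cultured for 5 days, then fixed and stained in one step (final 0.05% Triton X-100, 1% formaldehyde, 1 ug/ml Hoechst) and imaged at 4×. Doses were one drug alone or a fixed anchor-drug dose plus five library-drug doses (not always all listed) in √10 steps, and values are duplicate-plate medians.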

[1] = compound: CC(C)N(CCCNC(=O)Nc1ccc(C(C)(C)C)cc1)C[C@H]1O[C@@H](n2ccc3c(N)ncnc32)[C@H](O)[C@@H]1O + CC(C)C[C@H](NC(=O)[C@H](Cc1ccccc1)NC(=O)c1cnccn1)B(O)O [Bortezomib] (partner 0.002 µM)
Summary of the method: as §1

[2] = compound: CC(C)N(CCCNC(=O)Nc1ccc(C(C)(C)C)cc1)C[C@H]1O[C@@H](n2ccc3c(N)ncnc32)[C@H](O)[C@@H]1O + COc1cc2c(Oc3ccc(NC(=O)C4(C(=O)Nc5ccc(F)cc5)CC4)cc3F)ccnc2cc1OCCCN1CCOCC1 [Foretinib] (partner 0.25 µM)
Summary of the method: as §1

[3] = compound: CC(C)N(CCCNC(=O)Nc1ccc(C(C)(C)C)cc1)C[C@H]1O[C@@H](n2ccc3c(N)ncnc32)[C@H](O)[C@@H]1O + COc1cccc2cc(-c3nc([C@H]4CC[C@H](C(=O)O)CC4)n4ncnc(N)c34)[nH]c12 [OSI-027] (partner 0.5 µM)
Summary of the method: as §1

Cell Line UMC-11 has a relative viability (Shikonin + Linsitinib; first compound 0.01 µM) of 1.02, a relative viability (Shikonin + Linsitinib; first compound 0.1 µM) of 1.19 and a relative viability (Shikonin + Linsitinib; first compound 0.3162 µM) of 1.1. It also gave a relative viability (Shikonin + Linsitinib; first compound 1 µM) of 1.13, a relative viability ([1]; first compound 0.08 µM) of 0.654 and a relative viability ([1]; first compound 0.253 µM) of 0.531. For the same cell line, the relative viability ([1]; first compound 0.8 µM) was 0.673, the relative viability ([1]; first compound 2.53 µM) was 0.79 and the relative viability ([1]; first compound 8 µM) was 0.617. The relative viability ([2]; first compound 0.08 µM) was 0.979, the relative viability ([2]; first compound 0.253 µM) was 0.984 and the relative viability ([2]; first compound 0.8 µM) was 1.06. The relative viability ([2]; first compound 2.53 µM) was 0.975, the relative viability ([2]; first compound 8 µM) was 1.02 and the relative viability ([3]; first compound 0.08 µM) was 0.458. The relative viability ([3]; first compound 0.253 µM) was 0.465, the relative viability ([3]; first compound 0.8 µM) was 0.453 and the relative viability ([3]; first compound 2.53 µM) was 0.522. It also gave a relative viability ([3]; first compound 8 µM) of 0.532.
